These results are taken from patent US20240041878A1, “APELIN RECEPTOR MODULATORS FOR TREATMENT OF A DISORDER OR DISEASE ASSOCIATED WITH BBB PERMEABILITY” (BioAge Labs, Inc., priority 2022, published 2024).

For assay [1], the system named is Mouse astrocyte cells. As to the kind of experiment: CXCL1 and IL-6 ELISA of astrocyte culture media after RAC treatment. The assay is classed as cell-based. To be noted: RAC+APL [50 nM]. The protocol:
To stimulate astrocytes into a reactive state found in aging and neurodegenerative diseases per previous publications (Liddelow et al., 2017; Barbar et al., 2020), a combination of the cytokines TNF-α and IL-1α, and complement factor C1q, were added at 30 ng/mL, 3 ng/mL, and 400 ng/mL, respectively, into astrocyte culture media to make 'reactive astrocyte cocktail' (RAC) media. […] Bachem, Cat. #4029110), BAY-11-7082 (50 μM; Abcam, Cat. #ab141228) or equal volume of vehicle (0.01% DMSO in PBS) (hereafter referred to as 'RAC treatment'). Cells in Groups 3-6 were treated with RAC for 24 hours, with or without the test compounds (n=4 per group). • Group 1: Control [CON] • Group 2: CON+BGE-105 (50 nM) [CON+105] • Group 3: Reactive control treated with RAC only [RAC] • Group 4: RAC+BGE-105 (50 nM) [RAC+105] • Group 5: RAC+Pyrm-Apelin-13 (50 nM) • Group 6: RAC+BAY-11-7082 (NF-κB inhibitor; 50 μM) [RAC+BAY] Media from each tested cell group was collected for cytokine release analysis. Cells were lysed for RNA collection and RT-PCR was performed to synthesis cDNA under standard conditions. Next, transcriptome analysis was performed to determine the expression level of astrocyte genes or astrocyte responsive genes. Changes of expression was normalized to β-actin (FIGS. 8 and 9). Exemplary biomarkers include CCL2, CXCL10, CXCL11, CXCL1, CXCL2, CXCL3, CXCL8, EDN1, […]3, CIS, CTRL, C3, CFB, VEGF, and IL-6. For analysis of cytokines secreted by astrocytes, culture media was collected after RAC treatment, centrifuged at 10,000 RPM for 5 minutes to pellet any debris, and supernatant was transferred to a new tube and assayed immediately or frozen at -80° C. For individual analysis of CXCL1 or IL-6 concentrations, cell culture supernatant was diluted 1:50 or 1:10, respectively, and assessed using mouse-specific ELISA kits per manufacturer's protocols (R&D Systems, Cat. #DY453 and #DY406).
(An ELISA detects its analyte on a solid surface through an enzyme-linked reagent.)

For assay [2], the system named is Mouse primary astrocytes. Description: Astrocyte glutamate uptake. It counts as cell-based. To be noted: RAC+APL [50 nM] versus RAC. As to the method: To stimulate astrocytes into a reactive state found in aging and neurodegenerative diseases per previous publications (Liddelow et al., 2017; Barbar et al., 2020), a combination of the cytokines TNF-α and IL-1α, and complement factor C1q, were added at 30 ng/mL, 3 ng/mL, and 400 ng/mL, respectively, into astrocyte culture media to make 'reactive astrocyte cocktail' (RAC) media. […] Bachem, Cat. #4029110), BAY-11-7082 (50 μM; Abcam, Cat. #ab141228) or equal volume of vehicle (0.01% DMSO in PBS) (hereafter referred to as 'RAC treatment'). […] Fresh HBSS was added to each well and 100 μM glutamate (Sigma, Cat. #G1251) was added to each well. Empty wells not containing cells were filled with HBSS and 100 μM [NT] negative control. Cells were incubated at room temperature for 3 hours before HBSS was collected and glutamate concentration determined by colorimetric assay (Sigma, Cat. #MAK004). Relative change in glutamate uptake was calculated compared to negative control wells.

(Pyr^1)-Apelin-13 [reference compound]: in assay [1], the “CXCL1 concentration/release compared with BGE-105 [50 nM] group” value is reported as “no significant difference” and the “IL-6 concentration/release compared with BGE-105 [50 nM] group” value is given as “no significant difference”. Moreover, in assay [2], the “percentage of glutamate uptake in RAC astrocytes” value was “significantly and statistically increased”.
